Measured values from publication PMC8501045, “Addressing MRSA infection and antibacterial resistance with peptoid polymers” (Nature Communications, 2021).
Values after ≈ are worked out from the molar mass of the structure shown.

Assays:
L. monocytogenes 1001 = assay: MIC assay, clinical isolate; assay type: cell-based, Listeria monocytogene; details: Listeria monocytogenes, 1001
Experimental: MRSA (S. aureus Mu50, S. aureus Newman, S. aureus USA400, S. aureus USA300 LAC, S. aureus USA300) were obtained from Shanghai Institute of Materia Medica, Chinese Academy of Sciences. All clinically isolated Gram-positive bacteria used in this study were isolated from patients with various infections, different ages and sexes in the Shanghai Ruijin Rehabilitation Hospital. All strains were cultured in Luria-Bertani (LB) medium at 37 °C before use.
Bacteria were cultured in LB medium at 37 °C for 10 h, and then the bacterial suspension was diluted in Mueller–Hinton (MH) medium to a cell density of 2 × 10^5 colony forming units (CFU)/mL as the working suspension. The poly(Naeg)20 was serially diluted by MH medium in a 96-well plate, and an equal volume of bacterial suspension was added into each well. The final concentration of the poly(Naeg)20 was ranging from 200 to 1.56 μg/mL, and the plates were incubated at 37 °C for 9 h. Wells with inoculum and no polymer were used as the positive control; wells with only MH medium were used as the blank. The optical density (OD) in each well was measured on a Molecular Devices SpectraMax M2 precision microplate reader. The percentage of bacteria growth was calculated from1 %cellgrowth=A600polymer-A600blank/A600control-A600blank×100
(§1) The test was independently repeated at least three times.

S. epidermidis 9397 = assay: Mouse peritonitis model, survival test, S. epidermidis; assay type: in vivo; details: i.p. 20 mg/kg, 7 days
Experimental: This infection model was conducted according to the previously reported method with slight modification. Female ICR mice (21–24 g) were used for MRSA-infected peritonitis model. Mice were infected by intraperitoneal administration of 0.2 mL of S. aureus USA300 LAC in saline (7.5 × 10^8 CFU/mL) supplemented with 5% mucin. […] Once the infected mice died, peritoneal lavage was performed by injecting 3.0 mL of saline into the peritoneal cavity and massaging the abdomen. Subsequently, the abdomen was opened and peritoneal fluid was recovered from the abdominal cavity for analysis. Blood samples were collected through cardiac puncture for analysis of CFU/mL. Then, different organs including the heart, liver, spleen, lung, and kidney were removed and homogenized in 0.1% TX-100 solution. The homogenate was serially diluted for plating on LB agar. After incubation at 37 °C for 14 h, the number of colonies on the plate was counted to calculate the bacteria burden. Surviving mice were euthanized at 48 h after infection. The blood, peritoneal fluid, and organs were collected for the determination of bacterial colonies. […] For the pretreatment group, mice were sacrificed and tissues were harvested to determine the CFU at 1 h post infection. […]

[1] = system: S. aureus USA300 biofilm formation; assay: Inhibition study on biofilm formation; assay type: cell-based, Staphylococcus aureus
Experimental: The plate was incubated at 37 °C for 24 h, and then the culture medium was removed, washed with PBS once, followed by adding 100 µL MTT solution (0.5 mg/mL) into the corresponding well. After further incubation at 37 °C for 4 h in the dark, the MTT solution was removed. An aliquot of 100 μL DMSO was added to each well to solubilize the purple solid and then the OD value was collected at 570 nm on a microplate reader. Wells containing inoculum and without antibacterial agents were used as the positive control; wells containing only MH medium were used as the blank. The percentage of surviving cells within biofilm was calculated from4 %cellviability=A570polymer-A570blank/A570control-A570blank×100
as §1

S. aureus USA300 LAC [2] = assay: Mouse peritonitis model, CFU in organs, blood and IP fluid, MRSA; assay type: in vivo; details: Figure 6d
Experimental: This infection model was conducted according to the previously reported method with slight modification. Female ICR mice (21–24 g) were used for MRSA-infected peritonitis model. Mice were infected by intraperitoneal administration of 0.2 mL of S. aureus USA300 LAC in saline (7.5 × 10^8 CFU/mL) supplemented with 5% mucin. […] Once the infected mice died, peritoneal lavage was performed by injecting 3.0 mL of saline into the peritoneal cavity and massaging the abdomen. Subsequently, the abdomen was opened and peritoneal fluid was recovered from the abdominal cavity for analysis. Blood samples were collected through cardiac puncture for analysis of CFU/mL. Then, different organs including the heart, liver, spleen, lung, and kidney were removed and homogenized in 0.1% TX-100 solution. The homogenate was serially diluted for plating on LB agar. After incubation at 37 °C for 14 h, the number of colonies on the plate was counted to calculate the bacteria burden. Surviving mice were euthanized at 48 h after infection. The blood, peritoneal fluid, and organs were collected for the determination of bacterial colonies. […] For the pretreatment group, mice were sacrificed and tissues were harvested to determine the CFU at 1 h post infection.

S. aureus USA300 LAC [3] = assay: Mouse full-thickness wound infection model, MRSA; assay type: in vivo; details: 1.56 mg/mL topical
Experimental: This infection model was conducted according to the previously reported method with slight modification. Female balb/c mice (20–21 g) were used in the full-thickness wound model caused by MRSA. Prior to surgery, mice were anesthetized with an intraperitoneal injection of sodium pentobarbital at a dose of 75 mg/kg. The dorsal hair was shaved, and the skin was rinsed with 75% alcohol three times. The 6-mm-diameter full-thickness wounds were punctured on either side of the back using a biopsy punch. An aliquot of 10 µL S. aureus USA300 LAC suspension (1.25 × 10^5 CFU/mL) was added to wound site. The wound site was covered by Tegaderm dressing (3 M, St Paul, MN) to prevent contamination. […] The treatments were applied every 4 h for a total of three times. After the last treatment for 4 h, mice were euthanized with an overdose of sodium pentobarbital. The wound sites were excised, weighed, and homogenized in PBS containing 0.1% TX-100. Then the homogenate was serially diluted for plating on LB agar. After incubation at 37 °C for 14 h, the number of colonies on the plate was counted to calculate the bacteria burden of wounds.

Compound: CN[C@H](CC(C)C)C(=O)N[C@H]1C(=O)N[C@@H](CC(N)=O)C(=O)N[C@H]2C(=O)N[C@H]3C(=O)N[C@H](C(=O)N[C@H](C(=O)O)c4cc(O)cc(O)c4-c4cc3ccc4O)[C@H](O)c3ccc(c(Cl)c3)Oc3cc2cc(c3O[C@@H]2O[C@H](CO)[C@@H](O)[C@H](O)[C@H]2O[C@H]2C[C@](C)(N)[C@H](O)[C@H](C)O2)Oc2ccc(cc2Cl)[C@H]1O [Vancomycin]
- MIC (L. monocytogenes 1001): 0.39 µg/mL (≈ 0.269 µM)
- mice survived (S. epidermidis 9397): 4/6
- concentration required to inhibit the formation of S. aureus biofilm [1]: 2 × MIC
- Log10(CFU/mL IP fluid) (S. aureus USA300 LAC [2]; individual mouse 1 of 6): 3.724 Log10(CFU/mL)
- Log10(CFU/mL IP fluid) (S. aureus USA300 LAC [2]; individual mouse 2 of 6): 3.912 Log10(CFU/mL)
- Log10(CFU/mL IP fluid) (S. aureus USA300 LAC [2]; individual mouse 3 of 6): 2.845 Log10(CFU/mL)
- Log10(CFU/mL IP fluid) (S. aureus USA300 LAC [2]; individual mouse 4 of 6): 3.255 Log10(CFU/mL)
- Log10(CFU/mL IP fluid) (S. aureus USA300 LAC [2]; individual mouse 5 of 6): 3.595 Log10(CFU/mL)
- Log10(CFU/mL IP fluid) (S. aureus USA300 LAC [2]; individual mouse 6 of 6): 1.824 Log10(CFU/mL)
- Log10(CFU/mL Blood) (S. aureus USA300 LAC [2]; individual mouse 1 of 6): 1.824 Log10(CFU/mL)
- Log10(CFU/mL Blood) (S. aureus USA300 LAC [2]; individual mouse 2 of 6): 3.213 Log10(CFU/mL)
- Log10(CFU/mL Blood) (S. aureus USA300 LAC [2]; individual mouse 3 of 6): 3.885 Log10(CFU/mL)
- Log10(CFU/mL Blood) (S. aureus USA300 LAC [2]; individual mouse 4 of 6): 1.523 Log10(CFU/mL)
- Log10(CFU/mL Blood) (S. aureus USA300 LAC [2]; individual mouse 5 of 6): 2.222 Log10(CFU/mL)
- Log10(CFU/mL Blood) (S. aureus USA300 LAC [2]; individual mouse 6 of 6): 0 Log10(CFU/mL)
- Log10(CFU/g Heart) (S. aureus USA300 LAC [2]; individual mouse 1 of 6): 0 Log10(CFU/g)
- Log10(CFU/g Heart) (S. aureus USA300 LAC [2]; individual mouse 2 of 6): 2.523 Log10(CFU/g)
- Log10(CFU/g Heart) (S. aureus USA300 LAC [2]; individual mouse 3 of 6): 2.824 Log10(CFU/g)
- Log10(CFU/g Heart) (S. aureus USA300 LAC [2]; individual mouse 4 of 6): 2.824 Log10(CFU/g)
- Log10(CFU/g Heart) (S. aureus USA300 LAC [2]; individual mouse 5 of 6): 3 Log10(CFU/g)
- Log10(CFU/g Heart) (S. aureus USA300 LAC [2]; individual mouse 6 of 6): 0 Log10(CFU/g)
- Log10(CFU/g Kidney) (S. aureus USA300 LAC [2]; individual mouse 1 of 6): 3.222 Log10(CFU/g)
- Log10(CFU/g Kidney) (S. aureus USA300 LAC [2]; individual mouse 2 of 6): 4.951 Log10(CFU/g)
- Log10(CFU/g Kidney) (S. aureus USA300 LAC [2]; individual mouse 3 of 6): 4.845 Log10(CFU/g)
- Log10(CFU/g Kidney) (S. aureus USA300 LAC [2]; individual mouse 4 of 6): 2.824 Log10(CFU/g)
- Log10(CFU/g Kidney) (S. aureus USA300 LAC [2]; individual mouse 5 of 6): 2.523 Log10(CFU/g)
- Log10(CFU/g Kidney) (S. aureus USA300 LAC [2]; individual mouse 6 of 6): 4.247 Log10(CFU/g)
- Log10(CFU/g Liver) (S. aureus USA300 LAC [2]; individual mouse 1 of 6): 3.125 Log10(CFU/g)
- Log10(CFU/g Liver) (S. aureus USA300 LAC [2]; individual mouse 2 of 6): 4.501 Log10(CFU/g)
- Log10(CFU/g Liver) (S. aureus USA300 LAC [2]; individual mouse 3 of 6): 3.477 Log10(CFU/g)
- Log10(CFU/g Liver) (S. aureus USA300 LAC [2]; individual mouse 4 of 6): 4.398 Log10(CFU/g)
- Log10(CFU/g Liver) (S. aureus USA300 LAC [2]; individual mouse 5 of 6): 3.699 Log10(CFU/g)
- Log10(CFU/g Liver) (S. aureus USA300 LAC [2]; individual mouse 6 of 6): 3.699 Log10(CFU/g)
- Log10(CFU/g Lung) (S. aureus USA300 LAC [2]; individual mouse 2 of 6): 4.23 Log10(CFU/g)
- Log10(CFU/g Lung) (S. aureus USA300 LAC [2]; individual mouse 3 of 6): 3.125 Log10(CFU/g)
- Log10(CFU/g Lung) (S. aureus USA300 LAC [2]; individual mouse 5 of 6): 3 Log10(CFU/g)
- Log10(CFU/g Lung) (S. aureus USA300 LAC [2]; individual mouse 6 of 6): 3 Log10(CFU/g)
- Log10(CFU/g Spleen) (S. aureus USA300 LAC [2]; individual mouse 1 of 6): 3.426 Log10(CFU/g)
- Log10(CFU/g Spleen) (S. aureus USA300 LAC [2]; individual mouse 2 of 6): 4.689 Log10(CFU/g)
- Log10(CFU/g Spleen) (S. aureus USA300 LAC [2]; individual mouse 3 of 6): 3.885 Log10(CFU/g)
- Log10(CFU/g Spleen) (S. aureus USA300 LAC [2]; individual mouse 4 of 6): 4.404 Log10(CFU/g)
- Log10(CFU/g Spleen) (S. aureus USA300 LAC [2]; individual mouse 5 of 6): 4.222 Log10(CFU/g)
- Log10(CFU/g Spleen) (S. aureus USA300 LAC [2]; individual mouse 6 of 6): 4.204 Log10(CFU/g)
- reduction in the bacterial burden on the wound compared with the saline group (S. aureus USA300 LAC [3]): ~ 1.2 log
